Data taken from patent publication US11780832B2, “Lactivicin compounds, their preparation and use as antibacterial agents” (priority 2021, dated 2023).
Values after ≈ are worked out from the molar mass of the structure shown.

Assays:
Assay in all cases: MIC, CLSI broth microdilution
Type in all cases: cell-based
[1] = test system: Acinetobacter baumannii ATCC 19606; conditions: ATCC19606
Description: (§1) Gram-negative and Gram-positive bacterial strains used during the in vitro minimum inhibitory concentration (MIC) determination were obtained either from the American Type Culture Collection (ATCC) or from clinical specimens. All strains were characterized genotypically and the respective antibiotic resistance markers for each strain were identified.
(§2) Isolates were sub-cultured onto appropriate media and stocked in skim milk at −80° C. Following two subcultures from frozen stock, in vitro antimicrobial susceptibility testing was performed using the Clinical and Laboratory Standards Institute (CLSI) broth microdilution method. Briefly, fresh cultures were suspended in culture media to give a final stock inoculum size of 5×10^7 colony forming units per milliliter of broth (CFU/mL). […] 100 μL of the stock solutions were added to the first wells in a 96-well plate and were then diluted using a 2-fold dilution method to give a range of 32-0.025 μg/mL. 100 μL of the bacterial suspensions were then added to the 96-well plates to give a final working inoculum size of 5×10^5 CFU/mL. The final compound concentration range was 16-0.0125 μg/mL. […] MICs for comparator agents were determined using custom-designed, in-house prepared 96-well broth microdilution panels.

[2] = test system: Citrobacter freundii species complex OXA-181; conditions: Citrobacter freundii species complex, OXA-181; read-out: MIC
Description: as §1, §2

[3] = test system: Enterobacter cloacae species complex NDM-1
Description: as §1, §2

[4] = test system: Escherichia coli ATCC 25922; conditions: ATCC25922
Description: as §1, §2

Escherichia coli CMY-2 = conditions: CMY2
Description: as §1, §2

[5] = test system: Escherichia coli CTX-M-15; conditions: CTXM15
Description: as §1, §2

[6] = test system: Escherichia coli Empty pSMART plasmid
Description: as §1, §2

[7] = test system: Escherichia coli Isogenic TEM-10
Description: as §1, §2

[8] = test system: Escherichia coli Isogenic TEM-26
Description: as §1, §2

Escherichia coli SHV-12 = conditions: SHV12
Description: as §1, §2

[9] = test system: Escherichia coli pSMART_Cfreundii_AmpC
Description: as §1, §2

[10] = test system: Escherichia coli pSMART_Ecloacae_AmpC
Description: as §1, §2

[11] = test system: Klebsiella aerogenes VIM-1, SHV-12
Description: as §1, §2

[12] = test system: Klebsiella oxytoca KPC-2, TEM-1; conditions: KPC-2, TEM-1, read-out: MIC
Description: as §1, §2

[13] = test system: Klebsiella pneumoniae KPC-2; conditions: KPC2
Description: as §1, §2

[14] = test system: Klebsiella pneumoniae KPC-3; conditions: KPC3, KPC-3, read-out: MIC
Description: as §1, §2

[15] = test system: Klebsiella pneumoniae OXA-163, OXA-1_OXA-30, SHV-1, TEM-1
Description: as §1, §2

[16] = test system: Klebsiella pneumoniae OXA-48, SHV-1
Description: as §1, §2

[17] = test system: Klebsiella pneumoniae SHV-12; conditions: SHV12, SHV-12, read-out: MIC
Description: as §1, §2

[18] = test system: Pseudomonas aeruginosa ATCC 27853; conditions: ATCC27853
Description: as §1, §2

[19] = test system: Pseudomonas aeruginosa AmpC overexpressed
Description: as §1, §2

[20] = test system: Pseudomonas aeruginosa OprD negative
Description: as §1, §2

[21] = test system: Serratia marcescens AmpC overexpressed
Description: as §1, §2

[22] = test system: Serratia marcescens SME-2; conditions: SME2
Description: as §1, §2

| Compound | MIC [1] [µg/mL] | MIC [2] [µg/mL] | MIC [3] [µg/mL] | MIC [4] [µg/mL] | MIC (Escherichia coli CMY-2) [µg/mL] | MIC [5] [µg/mL] | MIC [6] [µg/mL] | MIC [7] [µg/mL] | MIC [8] [µg/mL] | MIC (Escherichia coli SHV-12) [µg/mL] | MIC [9] [µg/mL] | MIC [10] [µg/mL] | MIC [11] [µg/mL] | MIC [12] [µg/mL] | MIC [13] [µg/mL] | MIC [14] [µg/mL] | MIC [15] [µg/mL] | MIC [16] [µg/mL] | MIC [17] [µg/mL] | MIC [18] [µg/mL] | further results |
| --- | --- | --- | --- | --- | --- | --- | --- | --- | --- | --- | --- | --- | --- | --- | --- | --- | --- | --- | --- | --- | --- |
| Nc1nc(/C(=N/OC(CO)(CCl)C(=O)O)C(=O)N[C@H]2CON(C3(C(=O)O)C[C@H](N4C(=O)c5cc(O)c(O)cc5C4=O)C(=O)O3)C2=O)cs1 (stereo partly drawn) [Cmpd 6, (4S)-2-[(4S)-4-{[(2Z)-2-(2-amino-1,3-thiazol-4-yl)-2-{[(2-carboxy-1-chloro-3-hydroxypropan-2-yl)oxy]imino}acetyl]amino}-3-oxo-1,2-oxazolidin-2-yl]-4-(5,6-dihydroxy-1,3-dioxo-1,3-dihydro-2H-isoindol-2-yl)-5-oxooxolane-2-carboxylic acid] | 0.12 (≈ 0.168 µM) | ≤ 0.015 | 0.25 (≈ 0.351 µM) | 0.12 (≈ 0.168 µM) | 1 (≈ 1.4 µM) | 2 (≈ 2.81 µM) | ≤ 0.015 | ≤ 0.015 | ≤ 0.015 | 1 (≈ 1.4 µM) | 0.06 (≈ 0.0842 µM) | 0.06 (≈ 0.0842 µM) | 0.5 (≈ 0.701 µM) | ≤ 0.015 | 0.03 (≈ 0.0421 µM) | 0.03 (≈ 0.0421 µM) | 0.03 (≈ 0.0421 µM) | ≤ 0.015 | ≤ 0.015 | 0.25 (≈ 0.351 µM) | MIC [19]: 1 µg/mL (≈ 1.4 µM); MIC [20]: 2 µg/mL (≈ 2.81 µM); MIC [21]: 0.12 µg/mL (≈ 0.168 µM); MIC [22]: 0.06 µg/mL (≈ 0.0842 µM) |
| CC(C)(O/N=C(\C(=O)N[C@H]1CON(C2(C(=O)O)C[C@H](N3Cc4cc(O)c(O)cc4C3=O)C(=O)O2)C1=O)c1csc(N)n1)C(=O)O (stereo partly drawn) [Cmpd 35, (4S)-2-[(4S)-4-{[(2Z)-2-(2-amino-1,3-thiazol-4-yl)-2-{[(2-carboxypropan-2-yl)oxy]imino}acetyl]amino}-3-oxo-1,2-oxazolidin-2-yl]-4-(5,6-dihydroxy-1-oxo-1,3-dihydro-2H-isoindol-2-yl)-5-oxooxolane-2-carboxylic acid] | 0.25 (≈ 0.385 µM) | 0.25 (≈ 0.385 µM) | 1 (≈ 1.54 µM) | 0.5 (≈ 0.771 µM) | 8 (≈ 12.3 µM) | 1 (≈ 1.54 µM) | 0.06 (≈ 0.0925 µM) | 0.06 (≈ 0.0925 µM) | 0.12 (≈ 0.185 µM) | 1 (≈ 1.54 µM) | 0.5 (≈ 0.771 µM) | 0.25 (≈ 0.385 µM) | 1 (≈ 1.54 µM) | 0.0149 (≈ 0.023 µM) | 0.12 (≈ 0.185 µM) | 0.25 (≈ 0.385 µM) | 0.5 (≈ 0.771 µM) | 0.03 (≈ 0.0463 µM) | 0.06 (≈ 0.0925 µM) | 0.5 (≈ 0.771 µM) | MIC [19]: 2 µg/mL (≈ 3.08 µM); MIC [20]: 0.5 µg/mL (≈ 0.771 µM); MIC [21]: 0.5 µg/mL (≈ 0.771 µM); MIC [22]: 0.25 µg/mL (≈ 0.385 µM) |
| Nc1nc(/C(=N/OC2(C(=O)O)CCC(Cl)(Cl)CC2)C(=O)N[C@H]2CON(C3(C(=O)O)C[C@H](N4C(=O)c5cc(O)c(O)cc5C4=O)C(=O)O3)C2=O)cs1 (stereo partly drawn) [Cmpd 12, (4S)-2-[(4S)-4-{[(2Z)-2-(2-amino-1,3-thiazol-4-yl)-2-{[(1-carboxy-4,4-dichlorocyclohexyl)oxy]imino}acetyl]amino}-3-oxo-1,2-oxazolidin-2-yl]-4-(5,6-dihydroxy-1,3-dioxo-1,3-dihydro-2H-isoindol-2-yl)-5-oxooxolane-2-carboxylic acid] | 0.25 (≈ 0.324 µM) | 0.03 (≈ 0.0389 µM) | 2 (≈ 2.59 µM) | 0.25 (≈ 0.324 µM) | 1 (≈ 1.3 µM) | 4 (≈ 5.18 µM) | 0.03 (≈ 0.0389 µM) | 0.06 (≈ 0.0778 µM) | 0.06 (≈ 0.0778 µM) | 2 (≈ 2.59 µM) | 0.06 (≈ 0.0778 µM) | 0.06 (≈ 0.0778 µM) | 0.5 (≈ 0.648 µM) | ≤ 0.015 | 0.06 (≈ 0.0778 µM) | 0.06 (≈ 0.0778 µM) | 0.12 (≈ 0.156 µM) | ≤ 0.015 | 0.03 (≈ 0.0389 µM) | 0.25 (≈ 0.324 µM) | MIC [19]: 2 µg/mL (≈ 2.59 µM); MIC [20]: 0.25 µg/mL (≈ 0.324 µM); MIC [21]: 0.25 µg/mL (≈ 0.324 µM); MIC [22]: 0.12 µg/mL (≈ 0.156 µM) |
| CN1CCC(O/N=C(\C(=O)N[C@H]2CON(C3(C(=O)O)C[C@H](N4C(=O)c5cc(O)c(O)cc5C4=O)C(=O)O3)C2=O)c2csc(N)n2)(C(=O)O)CC1 (stereo partly drawn) [Cmpd 9, 4-({(Z)-[1-(2-amino-1,3-thiazol-4-yl)-2-({(4S)-2-[(4S)-2-carboxy-4-(5,6-dihydroxy-1,3-dioxo-1,3-dihydro-2H-isoindol-2-yl)-5-oxooxolan-2-yl]-3-oxo-1,2-oxazolidin-4-yl}amino)-2-oxoethylidene]amino}oxy)-1-methylpiperidine-4-carboxylic acid] | 2 (≈ 2.79 µM) | 0.25 (≈ 0.348 µM) | 8 (≈ 11.1 µM) | 0.5 (≈ 0.697 µM) | 2 (≈ 2.79 µM) | 4 (≈ 5.57 µM) | 0.12 (≈ 0.167 µM) | 0.12 (≈ 0.167 µM) | 0.12 (≈ 0.167 µM) | 2 (≈ 2.79 µM) | 0.25 (≈ 0.348 µM) | 0.25 (≈ 0.348 µM) | 0.5 (≈ 0.697 µM) | 0.03 (≈ 0.0418 µM) | 0.25 (≈ 0.348 µM) | 0.25 (≈ 0.348 µM) | 0.25 (≈ 0.348 µM) | 0.12 (≈ 0.167 µM) | 0.12 (≈ 0.167 µM) | 4 (≈ 5.57 µM) | MIC [19]: > 16 µg/mL; MIC [20]: > 16 µg/mL; MIC [21]: 4 µg/mL (≈ 5.57 µM); MIC [22]: 0.5 µg/mL (≈ 0.697 µM) |
| CC(C)(O/N=C(\C(=O)N[C@H]1CON(C2(C(=O)O)C[C@@H](N3C(=O)c4cc(O)c(O)cc4C3=O)C(=O)O2)C1=O)c1csc(N)n1)C(=O)O (stereo partly drawn) [Cmpd 40, (4R)-2-[(4S)-4-{[(2Z)-2-(2-amino-1,3-thiazol-4-yl)-2-{[(2-carboxypropan-2-yl)oxy]imino}acetyl]amino}-3-oxo-1,2-oxazolidin-2-yl]-4-(5,6-dihydroxy-1,3-dioxo-1,3-dihydro-2H-isoindol-2-yl)-5-oxooxolane-2-carboxylic acid] | 0.12 (≈ 0.181 µM) | 0.25 (≈ 0.377 µM) | 2 (≈ 3.02 µM) | 0.06 (≈ 0.0906 µM) | 2 (≈ 3.02 µM) | 2 (≈ 3.02 µM) | ≤ 0.015 | 0.03 (≈ 0.0453 µM) | ≤ 0.015 | 1 (≈ 1.51 µM) | 0.12 (≈ 0.181 µM) | 0.06 (≈ 0.0906 µM) | 0.25 (≈ 0.377 µM) | ≤ 0.015 | ≤ 0.015 | 0.03 (≈ 0.0453 µM) | 0.06 (≈ 0.0906 µM) | 0.03 (≈ 0.0453 µM) | ≤ 0.015 | 0.12 (≈ 0.181 µM) | MIC [19]: 8 µg/mL (≈ 12.1 µM); MIC [20]: 0.12 µg/mL (≈ 0.181 µM); MIC [21]: 0.12 µg/mL (≈ 0.181 µM); MIC [22]: 0.06 µg/mL (≈ 0.0906 µM) |
